Measured values from patent EP2763666B1 (priority 2011, dated 2013).
Where two headings read alike, the source gives them in different places.

Columns and labels:
[1] = tested on: L. infantum infected dogs; assay type: in vivo; conditions: for Antibody titre: mean ± standard deviation
[2] = tested on: L. infantum infected dogs; assay type: in vivo; conditions: for RT-PCR on lymph node FNA: mean ± standard deviation
canine blood monocytes = assay type: in vivo, dogs; conditions: for Macrophages activity of killing: NO production / NBT reduction; for Macrophages activity of killing / Macrophages activity of binding: mean ± standard deviation; for Macrophages activity of binding: direct count of macrophages containing yeast cells
[3] = tested on: L. infantum infected dogs; assay type: in vivo; conditions: for A/G ratio / Serum albumin / Serum γ-globulin: mean ± standard deviation
[4] = tested on: L. infantum infected dogs; assay type: in vivo; conditions: mean ± standard deviation
[5] = tested on: L. infantum infected dogs; assay type: in vivo; conditions: mean ± standard deviation; remark: listed apart in the source
generalized demodicosis = experiment: Canine generalized demodicosis: IP versus milbemycin oxime; assay type: in vivo, dogs; conditions: fraction of cases
Procedure: Twelve dogs diagnosed with generalized demodicosis were treated, 6 with IP and 6 with milbemycin oxime. Cases diagnosed before two years of age were classified as juvenile-onset (58.3%, 7 dogs) and those diagnosed after two years of age as adult-onset (41.6%, 5 dogs). […] As previous mentioned, in six dogs cured with milbemycin oxime, the drug was used for 1-6 months (mean 2.3 months) at a dosage of 0.5-1.6 mg kg-1 body weight (mean 0.75 mg kg-1). No significant difference in dosage or treatment time was seen between juvenile and adult cases. Six dogs cured with IP were treated at the same manner indicated as reported in Example 1, and 6). In group of IP treated dogs, not differences were observed between young and adult treated animals. […] Cases with severe pododemodicosis had less chance of a cure (2/3 not cured) by using M-O protocol, but not with IP protocol (2/2 cured).
Dogs: dogs of every age, breed or sex with generalized demodicosis were used in this study. All dogs. […] Dogs developing the disease at less than two years of age were classified as juvenile-onset generalized demodicosis. Dogs that developed disease at two years of age or older were classified as adult onset generalized demodicosis. […]
Follow-up: follow-up visits were scheduled once a month for clinical evaluation and skin scrapings. The scraping sites were recorded and sampled at each subsequent examination. […]

[6] = T0 (beginning of therapy), baseline

## Cc1ccc(-c2cc(C(F)(F)F)nn2-c2ccc(S(N)(=O)=O)cc2)cc1 [Celecoxib]
5 control parrots treated only with anti-COX2
  side effects: animals with chronic bleeding: two
Adult female African Grey parrot
  death with acute hemorrhagic event in the proventriculus, time from initiation of therapy: ≤ 7 days
Histology at T1 (six months) and T2 (one year of therapy)
  negativization of crop biopsies: 20%
In vivo
  renal side effect leading to discontinuation: inducing renal failure
Of 5 parrots, 1.5 year later
  parrots survived: 1
Of 5 parrots, during four months after the end of the therapy
  parrots died: 4

## Meglumine antimoniate [Control group]
[1]; Figure 2A legend, after the first six months of the trial
  trend of antibody (Ab titre): antibody title increase
[1]; [6]
  Antibody titre: 908 ± 1240
[1]; T1 (2 months)
  Antibody titre: 779 ± 1031
[1]; T2 (6 months)
  Antibody titre: 378 ± 321
[1]; T3 (12 months)
  Antibody titre: 493 ± 678
[2]; Figure 2B legend, after two months of treatment up to one year
  PCR results, levels of DNA copies (trend): progressive increase of parasite DNA in lymphnodes and bone-marrow
[2]; [6]
  RT-PCR on lymph node FNA: 613.228 ± 747.653 Parasites/ml
[2]; T1 (2 months)
  RT-PCR on lymph node FNA: 287.482 ± 434.807 Parasites/ml
[2]; T2 (6 months)
  RT-PCR on lymph node FNA: 210.103 ± 364.909 Parasites/ml
[2]; T3 (12 months)
  RT-PCR on lymph node FNA: 340.367 ± 511.898 Parasites/ml
Canine blood monocytes; Figure 4A legend
  Macrophages killing activity, levels of NO production / NBT reduction (trend): constantly low
Canine blood monocytes; [6]
  Macrophages activity of killing: 1,1 ± 0,1
  Macrophages activity of binding: 31,84 ± 12,9
Canine blood monocytes; T1 (2 months)
  Macrophages activity of killing: 1,2 ± 0,1
  Macrophages activity of binding: 34,84 ± 14,2
Canine blood monocytes; T2 (6 months)
  Macrophages activity of killing: 1,1 ± 0,1
  Macrophages activity of binding: 35,42 ± 13,68
Canine blood monocytes; T3 (12 months)
  Macrophages activity of killing: 1,1 ± 0,1
  Macrophages activity of binding: 32,77 ± 12,78
[3]; Figure 2D legend
  electrophoresis: gamma-globulins levels in sera (trend): after a first period of decreasing trend, the gamma globulins trend increase
[3]; [6]
  A/G ratio: 0,48 ± 0,23
  Serum albumin: 30,08 ± 9,63%
  Serum γ-globulin: 30,67 ± 7,91%
[3]; T1 (2 months)
  A/G ratio: 0,55 ± 0,23
  Serum albumin: 34,03 ± 9,5%
  Serum γ-globulin: 23,15 ± 7,46%
[3]; T2 (6 months)
  A/G ratio: 0,57 ± 0,23
  Serum albumin: 35,22 ± 9,35%
  Serum γ-globulin: 21,56 ± 5,86%
[3]; T3 (12 months)
  A/G ratio: 0,57 ± 0,22
  Serum albumin: 35,26 ±9,61%
  Serum γ-globulin: 22,74 ± 7,93%
[4]; [6]
  CD3^+/CD21^+ ratio: 42,62 ± 21,24
  CD4^+/CD8^+ ratio: 1,02 ± 0,48
[4]; T1 (2 months)
  CD3^+/CD21^+ ratio: 38,13 ± 20,56
  CD4^+/CD8^+ ratio: 1,04 ± 0,46
[4]; T2 (6 months)
  CD3^+/CD21^+ ratio: 39,85 ± 17,58
  CD4^+/CD8^+ ratio: 1,02 ± 0,45
[4]; T3 (12 months)
  CD3^+/CD21^+ ratio: 38,64 ± 19,54
  CD4^+/CD8^+ ratio: 1,31 ± 0,58
[5]; [6]
  Clinical scores: 4,4 ±2
[5]; T1 (2 months)
  Clinical scores: 2,5 ± 1,9
[5]; T2 (6 months)
  Clinical scores: 2,7 ±2
[5]; T3 (12 months)
  Clinical scores: 2,8 ± 2,2

## milbemycin oxime [M-O]
Generalized demodicosis
  cases with severe pododemodicosis not cured: 2/3
